Assay results as given in ChEMBL document CHEMBL5465560, “Selectivity Literature for EUbOPEN Chemogenomic Library” (2024).
Each block holds one compound with its values, some of them ahead of it.

Tests used:
[1] = biological target: Cyclin-dependent kinase 9 (Homo sapiens, UniProt P50750); assay: Selectivity interaction (KinomeScan (DiscoverX)) EUB0000655a CDK9; details: at 10 µM
[2] = biological target: Myosin-IIIa (Homo sapiens) (UniProt Q8NEV4); assay: Selectivity interaction (KinomeScan (DiscoverX)) EUB0001079a MYO3A; details: at 1 µM
[3] = biological target: RAF proto-oncogene serine/threonine-protein kinase (Homo sapiens) (UniProt P04049); assay: Selectivity interaction (KinomeScan (DiscoverX)) EUB0000607a RAF1; details: at 10 µM
[4] = biological target: Serine/threonine-protein kinase WNK4 (Homo sapiens) (UniProt Q96J92); assay: Selectivity interaction (ActivX KiNativ screen (ex vivo kinase selectivity in human PBMCs)) EUB0001619a WNK4; type: cell-based; details: PBMC, at 1 µM
[5] = biological target: Calcium/calmodulin-dependent protein kinase type II subunit delta (Homo sapiens) (UniProt Q13557); assay: Selectivity interaction (ActivX KiNativ screen (kinase selectivity in THP-1 cell lysates)) EUB0000639a CAMK2D; type: subcellular; details: lysate, at 0.04 µM
[6] = biological target: T1, Tyrosine-protein kinase TXK (Homo sapiens) (UniProt P42681); assay: Selectivity interaction (KinomeScan (DiscoverX)) EUB0000229b TXK; details: at 10 µM
T1 sequence (whole entry): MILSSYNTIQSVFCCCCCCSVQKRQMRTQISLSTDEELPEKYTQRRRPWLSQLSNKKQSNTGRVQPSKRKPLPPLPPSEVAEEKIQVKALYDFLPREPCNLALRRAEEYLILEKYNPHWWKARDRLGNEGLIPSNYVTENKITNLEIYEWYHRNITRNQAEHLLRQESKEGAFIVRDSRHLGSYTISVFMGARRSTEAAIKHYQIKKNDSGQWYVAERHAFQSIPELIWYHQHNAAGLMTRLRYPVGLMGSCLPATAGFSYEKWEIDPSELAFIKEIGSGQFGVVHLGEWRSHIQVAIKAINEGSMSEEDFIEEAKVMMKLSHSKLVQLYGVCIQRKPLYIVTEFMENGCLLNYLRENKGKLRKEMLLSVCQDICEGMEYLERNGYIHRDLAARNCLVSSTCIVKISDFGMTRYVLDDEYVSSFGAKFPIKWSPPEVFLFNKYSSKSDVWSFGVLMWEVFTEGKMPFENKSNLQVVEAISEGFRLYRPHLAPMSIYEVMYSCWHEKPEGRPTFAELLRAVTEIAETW

EML4-ALK (Homo sapiens) = EML4-ALK (Homo sapiens) (UniProt Q9UM73+Q9HC35); assay: (§1) Selectivity interaction (ProQinase) EUB0000171b ALK; type: protein assay
[7] = tested on: EML4-ALK (Homo sapiens), Q9UM73+Q9HC35 [UNDEFINED MUTATION]; assay: as §1; type: protein assay; details: at 5 µM
[8] = biological target: Protein kinase C gamma type (Homo sapiens) (UniProt P05129); assay: Selectivity interaction (ProQinase) EUB0000171b PRKCG
[9] = biological target: T2, Tyrosine-protein kinase JAK3 (Homo sapiens) (UniProt P52333); assay: Selectivity interaction (KinomeScan (DiscoverX)) EUB0001049a JAK3; details: at 1 µM
T2 sequence (whole entry): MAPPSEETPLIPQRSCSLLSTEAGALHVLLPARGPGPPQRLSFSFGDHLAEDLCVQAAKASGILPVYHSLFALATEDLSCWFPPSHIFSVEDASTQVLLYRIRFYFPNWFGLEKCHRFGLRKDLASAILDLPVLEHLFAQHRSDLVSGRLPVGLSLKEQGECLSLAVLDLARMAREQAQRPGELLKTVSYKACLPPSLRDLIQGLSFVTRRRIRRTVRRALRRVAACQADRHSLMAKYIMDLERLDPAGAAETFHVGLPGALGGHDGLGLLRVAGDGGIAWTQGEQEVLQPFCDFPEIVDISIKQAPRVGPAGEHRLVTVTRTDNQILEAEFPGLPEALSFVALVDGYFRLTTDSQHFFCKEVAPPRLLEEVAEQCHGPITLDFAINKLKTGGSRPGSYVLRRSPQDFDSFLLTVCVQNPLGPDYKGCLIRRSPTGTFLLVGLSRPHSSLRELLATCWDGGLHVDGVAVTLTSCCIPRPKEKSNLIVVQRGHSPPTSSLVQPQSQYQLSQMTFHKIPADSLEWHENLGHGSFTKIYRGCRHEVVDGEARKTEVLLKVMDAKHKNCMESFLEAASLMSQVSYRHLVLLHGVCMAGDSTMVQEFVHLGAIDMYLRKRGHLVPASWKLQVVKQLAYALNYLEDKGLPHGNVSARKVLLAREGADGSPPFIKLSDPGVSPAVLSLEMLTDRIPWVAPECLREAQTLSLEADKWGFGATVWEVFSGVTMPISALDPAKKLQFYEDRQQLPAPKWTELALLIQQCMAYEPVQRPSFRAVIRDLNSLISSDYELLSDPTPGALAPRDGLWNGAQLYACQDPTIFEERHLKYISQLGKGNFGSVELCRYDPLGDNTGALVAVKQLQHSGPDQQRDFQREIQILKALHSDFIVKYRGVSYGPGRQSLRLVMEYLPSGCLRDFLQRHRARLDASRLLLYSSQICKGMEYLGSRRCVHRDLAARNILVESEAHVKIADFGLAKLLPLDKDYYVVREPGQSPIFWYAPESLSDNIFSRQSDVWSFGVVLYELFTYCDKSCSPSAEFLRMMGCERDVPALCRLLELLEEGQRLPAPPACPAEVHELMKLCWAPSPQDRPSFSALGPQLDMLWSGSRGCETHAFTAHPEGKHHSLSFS

[10] = biological target: T3, Serine/threonine-protein kinase NLK (Homo sapiens) (UniProt Q9UBE8); assay: Selectivity interaction (KinomeScan (DiscoverX)) EUB0000666a NLK; details: at 10 µM
T3 sequence (whole entry): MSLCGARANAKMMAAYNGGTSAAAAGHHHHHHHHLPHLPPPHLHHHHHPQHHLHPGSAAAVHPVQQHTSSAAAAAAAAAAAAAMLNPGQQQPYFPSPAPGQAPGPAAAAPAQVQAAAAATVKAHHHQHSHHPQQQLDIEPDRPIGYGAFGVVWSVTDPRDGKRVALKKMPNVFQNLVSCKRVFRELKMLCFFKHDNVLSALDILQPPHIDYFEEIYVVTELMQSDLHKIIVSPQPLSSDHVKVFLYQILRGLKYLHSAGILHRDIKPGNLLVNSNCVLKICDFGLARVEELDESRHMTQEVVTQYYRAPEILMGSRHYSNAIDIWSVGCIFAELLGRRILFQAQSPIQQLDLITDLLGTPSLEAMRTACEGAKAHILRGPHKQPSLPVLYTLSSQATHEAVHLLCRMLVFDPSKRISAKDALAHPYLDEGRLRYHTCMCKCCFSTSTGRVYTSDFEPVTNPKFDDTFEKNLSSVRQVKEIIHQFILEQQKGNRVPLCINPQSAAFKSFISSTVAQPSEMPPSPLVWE

Chain of EML4-ALK (Homo sapiens) (Q9HC35 whole entry partner): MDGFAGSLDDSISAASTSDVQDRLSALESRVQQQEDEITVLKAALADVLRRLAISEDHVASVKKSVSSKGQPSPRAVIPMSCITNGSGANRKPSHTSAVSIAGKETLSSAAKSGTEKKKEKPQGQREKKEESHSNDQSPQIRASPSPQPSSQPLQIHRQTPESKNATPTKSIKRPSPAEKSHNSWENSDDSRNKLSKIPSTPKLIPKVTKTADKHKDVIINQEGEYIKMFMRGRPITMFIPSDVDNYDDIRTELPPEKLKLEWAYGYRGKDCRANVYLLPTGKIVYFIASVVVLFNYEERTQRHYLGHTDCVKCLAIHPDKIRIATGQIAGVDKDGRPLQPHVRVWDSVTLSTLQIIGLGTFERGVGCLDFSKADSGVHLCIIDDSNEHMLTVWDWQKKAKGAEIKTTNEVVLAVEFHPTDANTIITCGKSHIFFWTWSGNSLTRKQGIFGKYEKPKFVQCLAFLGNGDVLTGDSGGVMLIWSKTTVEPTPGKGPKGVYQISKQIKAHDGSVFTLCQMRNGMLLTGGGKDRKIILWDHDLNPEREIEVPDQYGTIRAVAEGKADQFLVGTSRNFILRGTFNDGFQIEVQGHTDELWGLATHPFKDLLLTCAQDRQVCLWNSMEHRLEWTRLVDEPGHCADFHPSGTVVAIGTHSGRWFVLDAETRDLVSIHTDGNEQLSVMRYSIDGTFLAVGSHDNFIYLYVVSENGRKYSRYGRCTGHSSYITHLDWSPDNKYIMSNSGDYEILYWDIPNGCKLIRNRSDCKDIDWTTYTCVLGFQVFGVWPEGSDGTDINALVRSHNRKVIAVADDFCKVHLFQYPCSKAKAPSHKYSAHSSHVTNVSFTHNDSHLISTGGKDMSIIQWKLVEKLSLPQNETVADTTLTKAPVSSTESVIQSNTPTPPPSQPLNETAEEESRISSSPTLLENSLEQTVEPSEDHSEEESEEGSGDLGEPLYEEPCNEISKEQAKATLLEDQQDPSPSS
Chain of EML4-ALK (Homo sapiens) (Q9UM73 19-1620 limits assumed): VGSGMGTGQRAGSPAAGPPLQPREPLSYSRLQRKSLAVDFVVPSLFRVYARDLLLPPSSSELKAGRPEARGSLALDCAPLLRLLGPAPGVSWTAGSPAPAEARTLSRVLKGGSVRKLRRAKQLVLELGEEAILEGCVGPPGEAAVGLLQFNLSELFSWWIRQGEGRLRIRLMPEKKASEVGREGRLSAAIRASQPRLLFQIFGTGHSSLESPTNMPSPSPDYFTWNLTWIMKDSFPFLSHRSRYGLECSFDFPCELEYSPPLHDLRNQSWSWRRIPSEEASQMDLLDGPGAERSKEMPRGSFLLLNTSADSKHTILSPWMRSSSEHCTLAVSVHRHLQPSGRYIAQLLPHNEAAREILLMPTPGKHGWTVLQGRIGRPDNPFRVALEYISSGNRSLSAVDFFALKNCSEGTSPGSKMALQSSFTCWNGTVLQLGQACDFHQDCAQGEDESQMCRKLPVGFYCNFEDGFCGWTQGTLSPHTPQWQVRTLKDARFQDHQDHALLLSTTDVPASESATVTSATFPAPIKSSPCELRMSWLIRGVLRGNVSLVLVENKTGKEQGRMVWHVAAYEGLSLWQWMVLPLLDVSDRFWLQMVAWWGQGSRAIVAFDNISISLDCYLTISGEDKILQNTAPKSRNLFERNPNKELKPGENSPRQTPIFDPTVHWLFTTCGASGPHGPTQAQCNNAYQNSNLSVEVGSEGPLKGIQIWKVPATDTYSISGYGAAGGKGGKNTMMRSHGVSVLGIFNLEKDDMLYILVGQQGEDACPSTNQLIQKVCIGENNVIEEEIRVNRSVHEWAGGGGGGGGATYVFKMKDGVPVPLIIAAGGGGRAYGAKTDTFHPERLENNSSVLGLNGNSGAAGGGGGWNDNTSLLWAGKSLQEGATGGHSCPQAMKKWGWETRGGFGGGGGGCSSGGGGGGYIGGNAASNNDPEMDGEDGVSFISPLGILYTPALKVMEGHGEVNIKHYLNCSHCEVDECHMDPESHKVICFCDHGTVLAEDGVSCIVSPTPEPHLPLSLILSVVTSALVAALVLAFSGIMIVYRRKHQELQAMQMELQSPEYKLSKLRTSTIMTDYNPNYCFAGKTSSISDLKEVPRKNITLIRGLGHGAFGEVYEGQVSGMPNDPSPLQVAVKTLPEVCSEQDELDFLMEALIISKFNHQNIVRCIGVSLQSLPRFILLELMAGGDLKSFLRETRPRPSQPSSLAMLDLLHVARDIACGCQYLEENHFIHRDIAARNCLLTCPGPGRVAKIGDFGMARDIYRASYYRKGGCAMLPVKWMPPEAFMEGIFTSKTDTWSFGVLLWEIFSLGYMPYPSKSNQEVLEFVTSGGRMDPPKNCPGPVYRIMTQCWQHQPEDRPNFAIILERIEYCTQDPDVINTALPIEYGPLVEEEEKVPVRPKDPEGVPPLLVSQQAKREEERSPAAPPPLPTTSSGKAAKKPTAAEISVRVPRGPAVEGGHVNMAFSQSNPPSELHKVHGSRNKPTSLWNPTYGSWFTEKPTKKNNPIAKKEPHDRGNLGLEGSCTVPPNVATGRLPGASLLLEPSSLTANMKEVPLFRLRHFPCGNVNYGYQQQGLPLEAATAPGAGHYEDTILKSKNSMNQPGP
Chain of EML4-ALK (Homo sapiens), Q9UM73+Q9HC35 [UNDEFINED MUTATION] (Q9HC35 whole entry, looked up, change not shown): as the sequence (Q9HC35 whole entry partner) above
Chain of EML4-ALK (Homo sapiens), Q9UM73+Q9HC35 [UNDEFINED MUTATION] (Q9UM73 whole entry, looked up, change not shown): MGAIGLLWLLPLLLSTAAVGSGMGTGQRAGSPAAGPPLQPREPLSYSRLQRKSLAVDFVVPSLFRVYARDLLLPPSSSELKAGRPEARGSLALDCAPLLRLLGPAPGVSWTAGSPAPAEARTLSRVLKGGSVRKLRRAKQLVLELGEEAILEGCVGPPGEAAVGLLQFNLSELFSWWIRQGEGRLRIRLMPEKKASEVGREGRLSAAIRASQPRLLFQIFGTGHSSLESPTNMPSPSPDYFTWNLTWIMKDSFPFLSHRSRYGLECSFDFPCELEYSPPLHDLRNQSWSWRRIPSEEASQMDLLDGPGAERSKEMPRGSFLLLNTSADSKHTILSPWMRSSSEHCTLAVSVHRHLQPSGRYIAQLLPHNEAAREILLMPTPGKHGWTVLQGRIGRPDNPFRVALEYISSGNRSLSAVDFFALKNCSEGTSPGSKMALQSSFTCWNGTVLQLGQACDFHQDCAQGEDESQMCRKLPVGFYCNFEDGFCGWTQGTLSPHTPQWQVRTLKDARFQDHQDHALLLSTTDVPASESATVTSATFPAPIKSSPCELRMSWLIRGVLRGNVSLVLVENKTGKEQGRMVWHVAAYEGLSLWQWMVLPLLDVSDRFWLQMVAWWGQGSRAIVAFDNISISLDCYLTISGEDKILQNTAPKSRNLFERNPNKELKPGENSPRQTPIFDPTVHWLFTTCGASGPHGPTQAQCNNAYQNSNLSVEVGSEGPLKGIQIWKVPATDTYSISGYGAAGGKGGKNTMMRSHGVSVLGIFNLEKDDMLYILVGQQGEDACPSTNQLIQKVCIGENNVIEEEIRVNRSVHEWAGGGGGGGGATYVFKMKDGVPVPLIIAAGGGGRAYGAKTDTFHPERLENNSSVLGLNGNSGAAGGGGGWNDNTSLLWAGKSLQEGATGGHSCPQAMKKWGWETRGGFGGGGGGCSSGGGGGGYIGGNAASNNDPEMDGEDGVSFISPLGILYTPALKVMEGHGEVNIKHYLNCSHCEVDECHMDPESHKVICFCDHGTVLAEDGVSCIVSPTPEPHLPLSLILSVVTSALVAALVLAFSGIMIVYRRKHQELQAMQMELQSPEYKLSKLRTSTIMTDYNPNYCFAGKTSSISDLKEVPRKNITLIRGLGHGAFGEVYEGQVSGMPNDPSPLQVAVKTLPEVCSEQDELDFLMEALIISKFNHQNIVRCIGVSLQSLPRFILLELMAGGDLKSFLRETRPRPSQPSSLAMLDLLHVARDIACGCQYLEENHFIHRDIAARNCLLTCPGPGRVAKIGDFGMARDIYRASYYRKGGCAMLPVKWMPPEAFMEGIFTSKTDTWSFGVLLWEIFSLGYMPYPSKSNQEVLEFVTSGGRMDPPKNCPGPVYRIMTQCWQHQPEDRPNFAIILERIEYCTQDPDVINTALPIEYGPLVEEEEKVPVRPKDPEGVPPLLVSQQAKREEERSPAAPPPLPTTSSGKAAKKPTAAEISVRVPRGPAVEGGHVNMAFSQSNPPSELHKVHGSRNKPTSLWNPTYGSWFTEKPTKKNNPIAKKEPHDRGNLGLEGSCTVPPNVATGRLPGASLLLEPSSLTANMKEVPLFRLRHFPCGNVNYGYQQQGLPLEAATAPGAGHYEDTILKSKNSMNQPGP

Compound: CN(C)CCOc1ccc(-c2nc(-c3ccncc3)c(-c3ccc4c(c3)CC/C4=N\O)[nH]2)cc1
- % of control [1]: 100%

Compound: Nc1cnc(N2CCc3cc(S(=O)(=O)Nc4c(F)cc(Cl)cc4F)cc(N4CCCC4=O)c32)nc1 [TP-020n]
- % of control [2]: 77%

Compound: CNC(=O)Nc1ccc(-c2nc(N3CC4CCC(C3)O4)c3cnn(C4CCC5(CC4)OCCO5)c3n2)cc1
- % of control [3]: 100%

Compound: N#Cc1cccc(-c2c[nH]c3ncnc(N4CCOCC4)c23)c1
- % of inhibition [4]: -1%

- % of inhibition [5]: 16.7%
Compound: CC[C@@H]1[C@H](F)C(=O)N[C@@H]1COc1nccc2cc(C(N)=O)c(OC)cc12 [ZIMLOVISERTIB]

Compound: COc1cc(N(C)c2ccnc3ccc(C(F)(F)F)cc23)cc(OC)c1OC
- % binding [6]: 96%

- % of control (EML4-ALK (Homo sapiens); at 1 µM): 91%
- % of control (EML4-ALK (Homo sapiens); at 5 µM): 89%
- % of control [7]: 80%
- % of control ([8]; at 1 µM): 88%
- % of control ([8]; at 5 µM): 100%
Compound: C=CC(=O)Nc1cccc(C(=O)Nc2ccc(Nc3cc(-c4[nH]c(SC)nc4C)ccn3)cc2)c1

Compound: COc1cc(Nc2nc(C)cc(-c3cnn4nc(OC)ccc34)n2)cc(C(F)(F)F)c1
- % of control [9]: 93%

Compound: O=C(NOC[C@H](O)CO)c1ccc(F)c(F)c1Nc1ccc(I)cc1F
- % of control [10]: 77%
